According to BindingDB's records for patent US20230286943 (Sanofi, 2023):

Molecular target: T1, Interleukin-17A (Homo sapiens, UniProt Q16552)
T1 sequence (Q16552 whole entry): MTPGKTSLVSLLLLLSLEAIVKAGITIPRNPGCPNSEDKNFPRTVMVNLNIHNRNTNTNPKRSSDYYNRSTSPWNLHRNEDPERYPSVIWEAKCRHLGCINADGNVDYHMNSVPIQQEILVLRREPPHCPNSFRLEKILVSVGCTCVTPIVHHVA
Assay: AlphaLISA Assay
Method: The ability of the compounds to block binding of IL-17A to its receptor, IL-17RA, was analysed in a competition assay using AlphaLISA technology (Perkin Elmer). The assay is a bead based AlphaLISA where the IL-17RA is captured on the acceptor bead via an Fc tag and IL-17A is captured on the streptavidin donor bead via a biotinylated anti-IL-17A antibody.Assay buffer was prepared by adding 0.05% Tween-20 (v/v) and 0.1% BSA to Phosphate Buffered Saline (PBS). The assay was carried out in 384-well white low volume plates (Corning 4512). 10 μL of a 7.5 nM stock of human recombinant IL-17A (R&D Systems 7955-IL/CF) diluted in assay buffer was dispensed into the assay plate and compounds or DMSO vehicle control were added in a volume of 75 nL using a D300 dispenser (Hewlett Packard). The compounds were pre-incubated with the IL-17A for 24 h at room temperature (or for 30 min, where indicated by * in Table A below) prior to addition of 5 μL of a 5 nM stock of human recombinant IL-17RA/Fc chimera (R&D Systems 177-IR-100) diluted in assay buffer. […] The luminescence signal was measured using an Enspire plate reader (Perkin Elmer) with excitation at 680 nm and emission at 615 nm. Data were analysed using GraphPad Prism and fitted to a 4-parameter logistic equation.

Cc1nnc(C)n1-c1ccc(NC(=O)[C@@H](NC(=O)c2ccnn2C)C2CCCCCC2)nc1 [US20230286943, Example 62]
IC50: 794 nM
